# In US20250360167A1 (Keryx Biopharmaceuticals, Inc., priority 2013, published 2025):
# What was measured:
# [1] = Dissolution testing, USP <711> vessels, Apparatus II; type: physicochemical; conditions: relative to standard = 100
# [2] = Phase 3 trial (Example 1): cumulative IV iron intake to Week 52; type: in vivo, human
# Protocol: Laboratory measurements were conducted throughout the study to assess safety and efficacy. The dose and specific IV iron preparation administered (if necessary) were at the discretion of the PI. Oral iron therapy was not permitted. Calcium-containing drugs were not permitted if given within two hours of food ingestion (calcium-containing drugs were permitted two hours or more prior to or following food ingestion or at bedtime for the purpose of raising the serum calcium). No Vitamin C supplements were permitted. Patients were allowed to take daily water soluble vitamins that include a small amount of Vitamin C (e.g., Centrum, Nephrocaps, Renaphro), but those patients were instructed to take them two hours or more prior to or following food ingestion or at bedtime. IV iron therapy was not permitted if the ferritin level is >1000 micrograms/L or the TSAT is >30%. If it was deemed in the patient's best interest to receive IV iron outside these parameters, the Clinical Coordinating Center (CCC) was consulted, and when approved and documented, was not considered a protocol exception.
# The cumulative IV iron intake from randomization to Week 52 will be compared between treatment groups. This variable will be similarly analyzed as the primary efficacy variable using ANCOVA method. The two-sided 95% confidence intervals of treatment differences for all above comparisons will be presented.
# serum bicarbonate = assay: Phase 3 trial (Example 1): serum bicarbonate concentration; type: in vivo, human; conditions: for Serum Bicarbonate Concentration, Mean / Serum Bicarbonate Concentration, Median / Serum Bicarbonate Concentration, LS Mean / Serum Bicarbonate Concentration, Change from Baseline, Mean / Serum Bicarbonate Concentration, Change from Baseline, Median / Serum Bicarbonate Concentration, Treatment Differences, LS Mean (KRX-0502) − LS Mean (control), (SE): Table 18; for Serum Bicarbonate Concentration, LS Mean: ANCOVA
# Protocol: Serum bicarbonate was performed at a local laboratory and was done at the Randomization Visit (Visit 4); at Visits 11 (Week 12), 14 (Week 24), 17 (Week 36), 20 (Week 48) and 21 (Week 52) during the Safety Assessment Period; and at Visit 25 (Week 56) of the Efficacy Assessment Period.
# • 1. Change in serum calcium concentration at Weeks 12, 24, 36, 48, and 52 as compared to baseline (Visit 4). This variable will be analyzed using LOCF methodology. ANCOVA will be employed. The model will include treatment (fixed effect), and baseline (covariate). • 2. Change in ferritin, and TSAT at Weeks 12, 24, 36 and 48 as compared to baseline (Visit 4). This variable will be analyzed using LOCF methodology. ANCOVA will be employed. The model will include treatment (fixed effect), and baseline (covariate). • 3. Change in serum iron and TIBC at Weeks 12, 24, 36, 48, and 52 as compared to baseline (Visit 4). This variable will be analyzed using LOCF methodology. ANCOVA will be employed. The model will include treatment (fixed effect), and baseline (covariate). • 4. Change in Ca x P product at Weeks 12, 24, 36, 48, and 52 as compared to baseline (Visit 4). This variable will be analyzed using LOCF methodology. ANCOVA will be employed. The model will include treatment (fixed effect), and baseline (covariate). • 5. Change in iPTH at Weeks 12, 36, 52, and 56 as compared to baseline (Visit 4). This variable will be analyzed using LOCF methodology. ANCOVA will be employed. The model will include treatment (fixed effect), and baseline (covariate). • 6. Change in serum […], vitamin A, vitamin B-12, vitamin E, vitamin K and folic acid at Weeks 12, 36, and 52 as compared to baseline (Visit 4). This variable will be analyzed using LOCF methodology. ANCOVA will be employed. The model will include treatment (fixed effect), and baseline (covariate). • 7. Change in serum bicarbonate concentration at Weeks 12, 36, and 52 as compared to baseline (Visit 4). This variable will be analyzed using LOCF methodology. ANCOVA will be employed. The model will include treatment (fixed effect), and baseline (covariate). • 8. Change in IV iron intake at Weeks 12, 24, 36, 48, and 52 as compared to baseline (Visit 4). This variable will be analyzed using LOCF methodology. ANCOVA will be employed. The model will include treatment (fixed effect), and baseline (covariate). • 9. Change in the use of EPO (ESA) administered at Weeks 12, 24, 36, 48, and 52 as compared to baseline (Visit 4). This variable will be analyzed using LOCF methodology. ANCOVA will be employed. The model will include treatment (fixed effect), and baseline (covariate). • 10. Change in the use of Vitamin D supplementation (and its analogs) and Sensipar (cinacalcet) at Weeks 12, 24, 36, 48, and 52 as compared to baseline (Visit 4). This variable will be analyzed using LOCF methodology. ANCOVA will be employed. The model will include treatment (fixed effect), and baseline (covariate). • 11. Change in LDL, HDL, and triglycerides at Weeks 12, 36, and 52 as compared to baseline (Visit 4). This variable will be analyzed using LOCF methodology. ANCOVA will be employed. The model will include treatment (fixed effect), and baseline (covariate).
# ferritin = assay: Phase 2 trial (Example 2): ferritin; type: in vivo, human
# Description: Change in serum phosphorus, ferritin and TSAT levels from baseline to end of treatment after 12 weeks are the primary endpoints.
# The key secondary endpoints of the study were the mean changes in ferritin, hemoglobin and FGF-23 from baseline to the end of the 12-week treatment period versus placebo in the ITT group.
# [3] = Method 1 to Handle Overlapping Doses, Table 19
# [4] = Day 0 Baseline, Safety Assessment Period
substance,measurement,setting,value
"iron (+3), x (1, 2, 3-propanetricarboxylic acid, 2-hydroxy-), y (H2O) [KRX-0502]","Dissolution testing, percentage dissolved",[1]; 5 minutes,≥ 91%
same,"Dissolution testing, percentage dissolved",[1]; 15 minutes,≥ 96%
same,"Dissolution testing, percentage dissolved",[1]; 30 minutes,≥ 96%
same,"Dissolution testing, percentage dissolved",[1]; 60 minutes,≥ 95%
same,"Average Daily IV iron intake based on the Cumulative IV iron intake to week 52 (Visit 4-21), Mean",[2]; [3],2.96
same,"Average Daily IV iron intake based on the Cumulative IV iron intake to week 52 (Visit 4-21), Median",[2]; [3],1.86
same,mean reduction in average cumulative IV iron intake,"[2]; administered over a period of 52 weeks, stated as embodiment",51.6%
same,"Serum Bicarbonate Concentration, Mean",serum bicarbonate; [4],23.92
same,"Serum Bicarbonate Concentration, Median",serum bicarbonate; [4],24.00
same,"Serum Bicarbonate Concentration, LS Mean",serum bicarbonate; Week 12,25.60
same,"Serum Bicarbonate Concentration, Change from Baseline, Mean",serum bicarbonate; Week 12,1.57
same,"Serum Bicarbonate Concentration, Change from Baseline, Median",serum bicarbonate; Week 12,1.05
same,"Serum Bicarbonate Concentration, Mean",serum bicarbonate; Week 12,25.63
same,"Serum Bicarbonate Concentration, Median",serum bicarbonate; Week 12,25.00
same,"Serum Bicarbonate Concentration, Treatment Differences, LS Mean (KRX-0502) − LS Mean (control), (SE)",serum bicarbonate; Week 12,−0.72 (0.37)
same,"Serum Bicarbonate Concentration, LS Mean",serum bicarbonate; Week 24,25.35
same,"Serum Bicarbonate Concentration, Change from Baseline, Mean",serum bicarbonate; Week 24,1.48
same,"Serum Bicarbonate Concentration, Change from Baseline, Median",serum bicarbonate; Week 24,1.00
same,"Serum Bicarbonate Concentration, Mean",serum bicarbonate; Week 24,25.39
same,"Serum Bicarbonate Concentration, Median",serum bicarbonate; Week 24,25.45
same,"Serum Bicarbonate Concentration, Treatment Differences, LS Mean (KRX-0502) − LS Mean (control), (SE)",serum bicarbonate; Week 24,−0.39 (0.38)
same,"Serum Bicarbonate Concentration, LS Mean",serum bicarbonate; Week 36,25.22
same,"Serum Bicarbonate Concentration, Change from Baseline, Mean",serum bicarbonate; Week 36,1.36
same,"Serum Bicarbonate Concentration, Change from Baseline, Median",serum bicarbonate; Week 36,1.00
same,"Serum Bicarbonate Concentration, Mean",serum bicarbonate; Week 36,25.27
same,"Serum Bicarbonate Concentration, Median",serum bicarbonate; Week 36,25.00
same,"Serum Bicarbonate Concentration, Treatment Differences, LS Mean (KRX-0502) − LS Mean (control), (SE)",serum bicarbonate; Week 36,−0.15 (0.34)
same,"Serum Bicarbonate Concentration, LS Mean",serum bicarbonate; Week 48,24.78
same,"Serum Bicarbonate Concentration, Change from Baseline, Mean",serum bicarbonate; Week 48,0.91
same,"Serum Bicarbonate Concentration, Change from Baseline, Median",serum bicarbonate; Week 48,1.00
same,"Serum Bicarbonate Concentration, Mean",serum bicarbonate; Week 48,24.81
same,"Serum Bicarbonate Concentration, Median",serum bicarbonate; Week 48,25.00
same,"Serum Bicarbonate Concentration, Treatment Differences, LS Mean (KRX-0502) − LS Mean (control), (SE)",serum bicarbonate; Week 48,−0.52 (0.36)
same,"Serum Bicarbonate Concentration, LS Mean",serum bicarbonate; Week 52,24.60
same,"Serum Bicarbonate Concentration, Change from Baseline, Mean",serum bicarbonate; Week 52,0.71
same,"Serum Bicarbonate Concentration, Change from Baseline, Median",serum bicarbonate; Week 52,1.00
same,"Serum Bicarbonate Concentration, Mean",serum bicarbonate; Week 52,24.63
same,"Serum Bicarbonate Concentration, Median",serum bicarbonate; Week 52,25.00
same,"Serum Bicarbonate Concentration, Treatment Differences, LS Mean (KRX-0502) − LS Mean (control), (SE)",serum bicarbonate; Week 52,−0.70 (0.44)
same,mean increase in serum bicarbonate concentration,"serum bicarbonate; administered for a period of 52 weeks, stated as embodiment",0.71 mEq/L
same,"Mean Ferritin, Baseline","ferritin; Baseline, ITT group, n = 72",116 ng/mL
same,"Mean Ferritin, End of Treatment (Week 12)","ferritin; Week 12, last observation carried forward, ITT group, n = 72",189 ng/mL
same,ending ferritin level at Visit 11 (Week 12),ferritin; sample size assumption,approximately 300 ng/mL
